Source: publication PMC3756011, “Evaluation of Memory Enhancing Clinically Available Standardized Extract of Bacopa monniera on P-Glycoprotein and Cytochrome P450 3A in Sprague-Dawley Rats” (PLoS ONE, 2013)
Blank lines part the entries; values can stand above or below the compound they belong to.

Key:
[1] = Oral pharmacokinetics of carbamazepine and carbamazepine 10,11-epoxide with and without BM pre-treatment; type: in vivo, male Sprague-Dawley rat; conditions: for CL/F / Cmax / AUC(0-inf) / MRT / AUC(0-∞): Mean ± SD
Description: Samples were vigorously vortexed for five minutes and centrifuged at 12,000 rpm for 20 minutes at 4°C. Supernatant thus obtained were analysed using HPLC-UV method. […] Column efﬂuent was monitored at 286 nm. The mobile phase was a mixture of 10 mM ammonium acetate (pH 7.4) and acetonitrile (65∶35). Chromatography was performed at a ﬂow rate of 1.0 ml/min. Pharmacokinetic parameters of probe drugs in plasma were derived from plasma concentration-time profile of probe drugs by Non-Compartmental analysis using WinNonlin Ver 5.1 (Pharsight Corporation, Mountain Veiw, CA).

Pgp = tested on: Pgp; parameters: method as in PMID 11318771; conditions: earlier reports; cited from earlier work
[2] = parameters: method as in PMID 15673597; conditions: rat vs human; cited from earlier work
[3] = Oral pharmacokinetics of digoxin with and without BM pre-treatment; type: in vivo, male Sprague-Dawley rat; conditions: for AUC(0-inf) / CL/F / MRT / Vd/F / half-life / Cmax: male, Sprague-Dawley, rat, plasma, po, 0.2 mg/kg
Description: Rats were divided in two groups (total 40 rats; 10 rats each group) for both probe drugs viz. control and BM pre-treated group.
Pharmacokinetic parameters of probe drugs in plasma were derived from plasma concentration-time profile of probe drugs by Non-Compartmental analysis using WinNonlin Ver 5.1 (Pharsight Corporation, Mountain Veiw, CA).

[4] = 2 hours after digoxin 0.2 mg/kg oral, BM pretreated vs vehicle
[5] = BM pre-treated vs vehicle treated rats, abstract
[6] = BM pretreated compared to vehicle pretreated rats
[7] = BM pretreated rats (31 mg/kg/day 7 days), carbamazepine 50 mg/kg oral
[8] = vehicle pretreated rats, carbamazepine 50 mg/kg oral
[9] = BM pre-treated compared to vehicle treated rats
[10] = BM pretreated rats (31 mg/kg/day 7 days), digoxin 0.2 mg/kg oral
[11] = vehicle pretreated rats, digoxin 0.2 mg/kg oral

SMILES: NC(=O)N1c2ccccc2C=Cc2ccccc21 [CBZ, carbamazepine]
increase in AUC following BM pre-treatment [1, 5]: 4 fold | increase in Cmax following BM pre-treatment [1, 5]: 1.8 fold | decrease in CL/F in BM pretreated rats [1, 6]: 3.8 times | increase in mean AUC in BM pretreated rats [1, 6]: 4 times | increase in mean Cmax in BM pretreated rats [1, 6]: 1.8 times | CL/F ([1]; male, Sprague-Dawley, rat, in vivo, po, 50 mg/kg, BM pretreated rats (31 mg/kg/day 7 days), carbamazepine 50 mg/kg oral, read-out: CL/F (converted)): 323 mL/h/kg | CL/F ([1]; male, Sprague-Dawley, rat, in vivo, po, 50 mg/kg, vehicle pretreated rats, carbamazepine 50 mg/kg oral, read-out: CL/F (converted)): 1250 mL/h/kg | Cmax ([1]; male, Sprague-Dawley, rat, plasma, po, 50 mg/kg, BM pretreated rats (31 mg/kg/day 7 days), carbamazepine 50 mg/kg oral 24 h after last BM, read-out: Cmax): 14400 ± 1220 ng/mL | AUC(0-inf) ([1]; male, Sprague-Dawley, rat, plasma, po, 50 mg/kg, BM pretreated rats (31 mg/kg/day 7 days), carbamazepine 50 mg/kg oral): 169000 ± 65600 ng·h/mL | MRT ([1]; male, Sprague-Dawley, rat, plasma, po, 50 mg/kg, BM pretreated rats (31 mg/kg/day 7 days), carbamazepine 50 mg/kg oral, read-out: MRT): 10.7 ± 6.57 h | AUC(0-inf) ([1]; male, Sprague-Dawley, rat, plasma, po, 50 mg/kg, vehicle pretreated rats, carbamazepine 50 mg/kg oral): 40400 ± 3890 ng·h/mL | Cmax ([1]; male, Sprague-Dawley, rat, plasma, po, 50 mg/kg, vehicle pretreated rats, carbamazepine 50 mg/kg oral, read-out: Cmax): 8170 ± 1460 ng/mL | MRT ([1]; male, Sprague-Dawley, rat, plasma, po, 50 mg/kg, vehicle pretreated rats, carbamazepine 50 mg/kg oral, read-out: MRT): 5.46 ± 1.2 h | Pgp substrate status (Pgp): not a Pgp substrate | metabolic clearance, rat higher compared to human [2]: 10 fold

Cmax ([1]; BM pretreated rats (31 mg/kg/day 7 days), carbamazepine 50 mg/kg oral 24 h after last BM): 819 ± 170 ng/mL | AUC(0-∞) [1, 7]: 15100 ± 7360 ng·h/mL | MRT [1, 7]: 21.65 ± 7.69 h | AUC(0-∞) [1, 8]: 14680 ± 2900 ng·h/mL | CL/F [1, 8]: 3.31 ± 0.56 mL/h/kg | Cmax [1, 8]: 1370 ± 11 ng/mL | MRT [1, 8]: 10.05 ± 0.33 h
SMILES: NC(=O)N1c2ccccc2C2OC2c2ccccc21 (stereo not drawn) [CBZ-E, carbamazepine 10,11-epoxide]

decrease in CL/F with BM pre-treatment [3, 9]: 27% | increase in AUC with BM pre-treatment [3, 9]: 37% | increase in Cmax with BM pre-treatment [3, 9]: 9% | increase in MRT with BM pre-treatment [3, 9]: 17% | increase in T1/2 with BM pre-treatment [3, 9]: 48% | increase in AUC following BM pre-treatment [3, 5]: 1.3 fold | AUC(0-inf) [3, 10]: 70.71 ± 0.351 ng·h/mL | CL/F [3, 10]: 3.53 mL/h/kg | MRT [3, 10]: 8.88 ± 1.28 h | Vd/F [3, 10]: 0.0221 ± 0.0103 L/kg | half-life [3, 10]: 4.33 ± 2.03 h | Cmax ([3]; BM pretreated rats (31 mg/kg/day 7 days), digoxin 0.2 mg/kg oral 24 h after last BM): 5.28 ± 0.205 ng/mL | AUC(0-inf) [3, 11]: 51.5 ± 6.1 ng·h/mL | CL/F [3, 11]: 4.88 mL/h/kg | Cmax [3, 11]: 4.82 ± 0.092 ng/mL | MRT [3, 11]: 7.56 ± 0.0147 h | Vd/F [3, 11]: 0.0208 ± 0.00471 L/kg | half-life [3, 11]: 2.92 ± 0.322 h | increase in tissue digoxin concentration in intestine ([4]; intestine): 1.3 fold | increase in tissue digoxin concentration in kidney ([4]; kidney): 1.3 fold
SMILES: C[C@H]1O[C@@H](O[C@H]2[C@@H](O)C[C@H](O[C@H]3[C@@H](O)C[C@H](O[C@H]4CC[C@@]5(C)[C@H](CC[C@@H]6[C@@H]5C[C@@H](O)[C@]5(C)[C@@H](C7=CC(=O)OC7)CC[C@]65O)C4)O[C@@H]3C)O[C@@H]2C)C[C@H](O)[C@@H]1O [Digoxin, digoxin]
